Data reported in article PMC2408617, “Gametogenesis in Malaria Parasites Is Mediated by the cGMP-Dependent Protein Kinase” (PLoS Biology, 2008).
“Also recorded” adds a separate entry of the source.

Key:
PfPKGT618Q = target: T1, PfPKGT618Q (Plasmodium falciparum, UniProt Q8I719, T618Q); assay: Recombinant PKG activity assay, T618Q mutant; format: biochemical
T1 construct: The gene encoding full-length PfPKG was cloned into the pTrcHis expression plasmid (Invitrogen); His tag (from pTrcHis vector); made in house; host or cells: Escherichia coli
T1 sequence (Q8I719 whole entry T618Q): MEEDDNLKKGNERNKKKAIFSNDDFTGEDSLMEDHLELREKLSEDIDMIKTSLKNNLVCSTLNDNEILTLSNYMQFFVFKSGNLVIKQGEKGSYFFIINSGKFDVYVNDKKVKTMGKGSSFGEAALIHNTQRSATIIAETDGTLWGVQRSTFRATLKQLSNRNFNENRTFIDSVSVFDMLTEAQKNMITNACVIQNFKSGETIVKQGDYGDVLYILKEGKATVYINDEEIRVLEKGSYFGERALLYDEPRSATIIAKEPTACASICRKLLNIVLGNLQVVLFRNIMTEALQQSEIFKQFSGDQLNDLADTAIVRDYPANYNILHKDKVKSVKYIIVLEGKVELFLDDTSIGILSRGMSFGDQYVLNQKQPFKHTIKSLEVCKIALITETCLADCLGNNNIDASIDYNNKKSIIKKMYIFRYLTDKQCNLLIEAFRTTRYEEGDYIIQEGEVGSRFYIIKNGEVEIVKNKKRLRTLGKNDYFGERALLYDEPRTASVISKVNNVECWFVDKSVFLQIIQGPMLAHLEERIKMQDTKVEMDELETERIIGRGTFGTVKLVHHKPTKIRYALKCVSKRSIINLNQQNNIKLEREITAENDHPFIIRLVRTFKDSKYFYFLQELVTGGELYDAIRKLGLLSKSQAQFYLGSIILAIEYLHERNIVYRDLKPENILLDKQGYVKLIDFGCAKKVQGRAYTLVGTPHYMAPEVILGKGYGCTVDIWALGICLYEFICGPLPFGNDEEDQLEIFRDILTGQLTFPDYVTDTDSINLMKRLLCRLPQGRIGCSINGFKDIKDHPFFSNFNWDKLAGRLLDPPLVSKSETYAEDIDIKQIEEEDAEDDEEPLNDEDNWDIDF
Text: (§1) Figure 4 Substitution of a Key Active Site Threonine Residue Confers Compound 1 Insensitivity to Recombinant PfPKG (A) An alignment of regions of PfPKG in the ATP-binding pocket, thought to interact with compound 1, with those of other apicomplexans. Conserved active site residues highlighted in grey were predicted to approach compound 1 in a model of the Eimeria tenella PKG [29] (EtPKG). The threonine residue (T618), substituted in PfPKG in this study, is highlighted in grey and marked with an asterisk. Amino acid sequences are numbered to the right of the blocks of sequence. (B) Dose-response curves showing the effect of compound 1 on recombinant PKG enzyme activity assayed in the presence of 10 μM cGMP. Red diamonds indicate full-length WT PfPKG; black triangles, mutated PfPKG with T618 replaced by a glutamine residue; and blue squares, mutated PfPKG with T618 replaced by a methionine residue.
(§2) The activity of recombinant and native PKG was measured using a modification of standard procedures. The gene encoding full-length PfPKG was cloned into the pTrcHis expression plasmid (Invitrogen). Substitution of specific amino acids of PfPKG was carried out using a QuickChange Multi Site-Directed Mutagenesis kit (Stratagene) according to the manufacturer's instructions. Expression, affinity purification of E. coli–expressed recombinant proteins, and PKG activity assays were performed as previously described. All experiments were performed at least twice in triplicate. PKG measurements in native P. falciparum proteins were performed using an adaptation of a previously described assay. Briefly, ring stage parasites were exposed to 0.15% saponin solution in PBS to free the parasites from their host cells. […] Radiolabelled peptide was detected on 96-well multiscreen phosphocellulose plates (MAPH-NOB; Millipore) by scintillation counting on a Wallac 1450 Microbeta scintillation β-counter (Perkin-Elmer). […]

T. gondii = conditions: cited from earlier work
[1] = tested on: P. falciparum asexual blood stages; assay: Asexual parasite growth inhibition, [3H]-hypoxanthine incorporation; format: cell-based, Plasmodium falciparum; conditions: unpublished data
Protocol: Asexual parasite growth assays were carried out to obtain the IC50 of test compounds using inhibition of incorporation of [^3H]-hypoxanthine, and to compare growth rates between transfected clones. Briefly, in 96-well plates, each test well was dosed at early trophozoite stage with 10 μl of [^3H]-hypoxanthine (GE Healthcare) to a final concentration of 0.2 μCi. The radioactivity of the [^3H]-hypoxanthine incorporated into parasite nucleic acid over 24 h was determined relative to the WT controls using a Wallac 1450 Microbeta scintillation β-counter (Perkin-Elmer). This assay was done in triplicate and repeated at least three times.

[2] = tested on: P. falciparum gametocytes (WT / Pfrh3- control); assay: Gametogenesis assay: rounding up, WT/control gametocytes; format: cell-based, Plasmodium falciparum
Protocol: (§3) P. falciparum gametocytes were produced from the 3D7 clone in human A+ erythrocytes with 10% human serum (National Blood Service), and enriched using Nycodenz (Nycoprep 1.077; Axis-Shield) centrifugation as previously described. For gametogenesis, cells were resuspended at 5 × 10^6 parasites per millilitre and induced with either 20 μM XA or 25–400 μM zaprinast in complete medium, and a reduction (of >5 °C) in temperature. For gametogenesis assays, 10 min post induction, cells were mounted on a wet smear. […] Test reagents including zaprinast, BAPTA-AM, compound 1, and compound 2 were resuspended in DMSO as stock solutions and diluted in complete medium for gametogenesis assays, with the XA stock resuspended in RPMI 1640. The maximum final DMSO concentration in the gametogenesis medium was 0.4%, which was used as a negative control. […] Compound 1 and compound 2 were added at the point of activation with either XA or zaprinast, whereas cells were preincubated with 100 μM BAPTA-AM as previously described. Statistical multivariate analysis was carried out using Poisson regression (Stata 9.2; StataCorp) to compare the effects of genetic background (mutant vs. WT) and experimental replicate (included as categorical data in the analysis) on the rates of rounding up at individual drug concentrations. For each drug concentration, the mutants were tested separately against the WT control, and the resultant output was anti-logged to give the relative risk (and 95% confidence interval) for rounding up with genetic background.

Eimeria = conditions: cited from earlier work
PfPKGT618M gametocytes = assay: Gametogenesis assay: rounding up, PfPKGT618M gametocytes; format: cell-based, Plasmodium falciparum; conditions: for RR, relative risk of rounding up, T618M vs WT: Poisson regression
Protocol: as §3
(§4) Supplementary file pbio.0060139.st002.doc: Table S2 Poisson Regression Analysis for Compound 1 Sensitivity of Rounding Up of Both Mutants Compared to WT Each rounding-up measurement was made by counting 200 cells and scoring for rounding up (or not rounding up). At each compound 1 concentration, rounding-up replicate counts for both clones were compared to WT values separately by Poisson regression analysis using the Stata 9.2 package (StataCorp). Where n < 2 (indicated by n.d.), data were excluded from the analysis. Compound 1 concentration (comp1) is shown in micromolar. The p-values from this analysis and the relative risk (RR) of rounding up with genetic background (and 95% confidence intervals [CI]) are shown. (38 KB DOC) Click here for additional data file.

P. berghei = conditions: cited from earlier work
[3] = tested on: cGMP-dependent kinase activity in P. falciparum lysates; assay: Native cGMP-dependent kinase activity in cell lysates; format: biochemical, Plasmodium falciparum; conditions: control versus PfPKGT618Q lysates
Protocol: as §2, with “cells. Both gametocyte and ring stage parasite pellets were lysed in HBS buffer (50 mM Hepes [pH 7.4], 1 mM EDTA, 1% Nonidet P-40, 10 mM NaF, 0.1 mM sodium orthovanadate, 1 mM dithiotreitol) supplemented with a 1/100 dilution of Sigma-Aldrich Protease Inhibitor Cocktail. Parasite lysis was confirmed by microscopic examination of Giemsa-stained thin smears.” for “cells.”

PfPKGT618M = target: T2, PfPKGT618M (Plasmodium falciparum, UniProt Q8I719, T618M); assay: Recombinant PKG activity assay, T618M mutant; format: biochemical; conditions: versus WT
T2 construct: The gene encoding full-length PfPKG was cloned into the pTrcHis expression plasmid (Invitrogen); His tag (from pTrcHis vector); made in house; host or cells: Escherichia coli
T2 sequence (Q8I719 whole entry T618M): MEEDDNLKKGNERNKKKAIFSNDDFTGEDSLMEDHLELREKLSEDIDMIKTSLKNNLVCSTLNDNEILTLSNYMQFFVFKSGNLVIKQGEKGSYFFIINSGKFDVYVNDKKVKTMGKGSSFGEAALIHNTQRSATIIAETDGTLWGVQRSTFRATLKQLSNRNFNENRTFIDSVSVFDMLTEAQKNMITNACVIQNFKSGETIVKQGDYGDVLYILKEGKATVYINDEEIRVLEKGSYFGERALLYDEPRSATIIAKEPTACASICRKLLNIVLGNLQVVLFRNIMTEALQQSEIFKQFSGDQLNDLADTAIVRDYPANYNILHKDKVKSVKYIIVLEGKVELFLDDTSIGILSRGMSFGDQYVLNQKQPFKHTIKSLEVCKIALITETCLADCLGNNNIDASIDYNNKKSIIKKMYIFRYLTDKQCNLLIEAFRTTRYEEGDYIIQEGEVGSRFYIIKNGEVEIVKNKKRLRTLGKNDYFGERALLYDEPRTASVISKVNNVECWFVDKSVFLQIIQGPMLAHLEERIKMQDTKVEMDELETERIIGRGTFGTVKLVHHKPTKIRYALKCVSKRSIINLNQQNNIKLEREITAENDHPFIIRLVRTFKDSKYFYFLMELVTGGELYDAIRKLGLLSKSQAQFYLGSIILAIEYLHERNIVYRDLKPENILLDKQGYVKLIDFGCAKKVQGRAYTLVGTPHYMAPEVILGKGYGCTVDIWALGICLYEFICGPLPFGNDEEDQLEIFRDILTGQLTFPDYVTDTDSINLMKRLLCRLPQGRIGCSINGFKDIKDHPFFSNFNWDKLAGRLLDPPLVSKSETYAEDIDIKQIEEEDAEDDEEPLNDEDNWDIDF
Text: as §1
The activity of recombinant and native PKG was measured using a modification of standard procedures. The gene encoding full-length PfPKG was cloned into the pTrcHis expression plasmid (Invitrogen). […] Radiolabelled peptide was detected on 96-well multiscreen phosphocellulose plates (MAPH-NOB; Millipore) by scintillation counting on a Wallac 1450 Microbeta scintillation β-counter (Perkin-Elmer). […]

PfPKGT618Q gametocytes = assay: Gametogenesis assay: rounding up, PfPKGT618Q gametocytes; format: cell-based, Plasmodium falciparum; conditions: for RR, relative risk of rounding up, T618Q vs WT: Poisson regression
Protocol: as §3, §4

[4] = tested on: P. falciparum gametocytes; assay: Gametogenesis assay: exflagellation; format: cell-based, Plasmodium falciparum
Protocol: as §3

[5] = 1–5 μM compound, XA stimulation

CN1CCC(c2cc(-c3ccncc3)c(-c3ccc(F)cc3)[nH]2)CC1 [compound 1]
IC50 (PfPKGT618Q; 10 μM cGMP, read-out: IC50, PfPKGT618Q recombinant enzyme): 17.8 ± 4.7 µM | less sensitive, PfPKGT618Q versus WT recombinant enzyme (PfPKGT618Q; ratio of IC50 values): over 3,000 times | decreased sensitivity conferred by T618Q in the recombinant protein (PfPKGT618Q; versus WT): > 3,000 fold | effect on infection by T. gondii in mice (T. gondii): cure | IC50 [1]: 2.7 ± 0.17 µM | gametocytes in which change of shape is prevented [2]: over 90% | rounding up of control gametocytes [2, 5]: reduced rounding up to background levels | inhibition of rounding up ([2]; control gametocytes stimulated with XA (or zaprinast)): inhibited by compound 1 in a dose-dependent manner | effect on Eimeria infection in chickens (Eimeria): cure | RR, relative risk of rounding up, T618M vs WT (PfPKGT618M gametocytes; compound 1 0.1 μM): 1.014 | RR, relative risk of rounding up, T618M vs WT (PfPKGT618M gametocytes; compound 1 2 μM): 1.020 | RR, relative risk of rounding up, T618M vs WT (PfPKGT618M gametocytes; compound 1 4 μM): 0.946 | RR, relative risk of rounding up, T618M vs WT (PfPKGT618M gametocytes; compound 1 5 μM): 1.010 | RR, relative risk of rounding up, T618M vs WT (PfPKGT618M gametocytes; compound 1 6 μM): 1.002 | RR, relative risk of rounding up, T618M vs WT (PfPKGT618M gametocytes; compound 1 20 μM): 0.861 | difference in sensitivity of PfPKGT618M line compared to control cells (PfPKGT618M gametocytes; rounding up and exflagellation): no significant difference in sensitivity | effect on P. berghei infections in mice (P. berghei): delays the onset | sensitivity of cGMP-dependent kinase activity in control and mutant lysates [3]: equivalent levels of sensitivity | increase in sensitivity of T618M recombinant enzyme (PfPKGT618M): < 4 fold | inhibitory effects on rounding up of PfPKGT618Q gametocytes (PfPKGT618Q gametocytes; 2 μM, stimulation with zaprinast or XA): absence of inhibitory effects | rounding up of PfPKGT618Q gametocytes (PfPKGT618Q gametocytes; [5]): rounded up to almost normal levels | RR, relative risk of rounding up, T618Q vs WT (PfPKGT618Q gametocytes; compound 1 0.1 μM): 1.031 | RR, relative risk of rounding up, T618Q vs WT (PfPKGT618Q gametocytes; compound 1 2 μM): 1.827 | RR, relative risk of rounding up, T618Q vs WT (PfPKGT618Q gametocytes; compound 1 5 μM): 2.248 | RR, relative risk of rounding up, T618Q vs WT (PfPKGT618Q gametocytes; compound 1 6 μM): 1.974 | RR, relative risk of rounding up, T618Q vs WT (PfPKGT618Q gametocytes; compound 1 8 μM): 1.910 | RR, relative risk of rounding up, T618Q vs WT (PfPKGT618Q gametocytes; compound 1 10 μM): 1.649 | RR, relative risk of rounding up, T618Q vs WT (PfPKGT618Q gametocytes; compound 1 20 μM): 1.283 | lower sensitivity of PfPKGT618Q gametocytes than control cells (rounding up) (PfPKGT618Q gametocytes; range of inhibitor concentrations, approximately): 10–20 fold | inhibition of exflagellation ([4]; gametocytes stimulated with XA or zaprinast): inhibited by compound 1 in a dose-dependent manner; also recorded: inhibited exflagellation in a dose-dependent manner | difference in sensitivity of exflagellation between control and PfPKGT618Q cell lines ([4]; unpublished data): no significant difference in sensitivity
